According to ChEMBL document CHEMBL3804797, “Discovery of Aryl Sulfonamides as Isoform-Selective Inhibitors of NaV1.7 with Efficacy in Rodent Pain Models” (ACS Med Chem Lett, 2016):
Active and inactive are the calls of the source. No cut-off for these calls is given here.

Columns and labels:
Rattus norvegicus [1] = test: Analgesic activity in rat assessed as inhibition of aconitine-induced pain response at 30 mg/kg, ip dosed 2 hrs prior to aconitine challenge measured over 60 mins by automated nociception analysis relative to control; type: functional, organism-based
[2] = Selectivity ratio of IC50 for rat Nav1.7 to IC50 for human Nav1.7
Rattus norvegicus [3] = test: Analgesic activity in ip dosed rat assessed as inhibition of formalin-induced late phase pain response dosed 2 hrs prior to formalin challenge measured over 10 to 40 mins by automated nociception analysis; type: functional, organism-based
Rattus norvegicus [4] = test: Analgesic activity in rat assessed as inhibition of formalin-induced late phase pain response at 30 mg/kg,ip dosed 2 hrs prior to formalin challenge measured over 10 to 40 mins by automated nociception analysis; type: functional, organism-based
Mus musculus [5] = test: Analgesic activity in ip dosed mouse assessed as reduction in CFA-induced cold allodynia administered 1 hr prior to acetone challenge on day 2 post CFA injection measured for 120 secs relative to vehicle control; type: functional, organism-based
Mus musculus [6] = test: Analgesic activity in mouse assessed as reduction in CFA-induced cold allodynia at 10 mg/kg, ip administered 1 hr prior to acetone challenge on day 2 post CFA injection measured for 120 secs relative to vehicle control; type: functional, organism-based
Rattus norvegicus [7] = test: Analgesic activity in rat assessed as delay in onset of formalin-induced pain response at 100 mg/kg,ip dosed 2 hrs prior to formalin challenge measured over 60 mins by automated nociception analysis; type: functional, organism-based
Rattus norvegicus [8] = test: Analgesic activity in rat assessed as inhibition of aconitine-induced pain response at 100 mg/kg, ip dosed 2 hrs prior to aconitine challenge measured over 60 mins by automated nociception analysis relative to aconitine; type: functional; parameters: scale not given: the % may be the effect or the level left
Mus musculus [9] = test: Analgesic activity in mouse assessed as reduction in CFA-induced cold allodynia at 30 mg/kg, ip administered 1 hr prior to acetone challenge on day 2 post CFA injection measured for 120 secs relative to vehicle control; type: functional; parameters: scale not given: the % may be the effect or the level left
Rattus norvegicus [10] = test: Analgesic activity in formalin-induced rat pain model assessed as free plasma concentration required to show efficacy at 30 to 100 mg/kg, ip dosed 2 hrs prior to aconitine challenge measured over 60 mins by automated nociception analysis; type: functional
Rattus norvegicus [11] = test: Analgesic activity in aconitine-induced rat pain model assessed as free plasma concentration required to show efficacy at 30 to 100 mg/kg, ip dosed 2 hrs prior to aconitine challenge measured over 60 mins by automated nociception analysis; type: functional
Rattus norvegicus [12] = test: Analgesic activity in rat assessed as reduction in formalin-induced late phase pain response at 100 mg/kg, ip dosed 2 hrs prior to formalin challenge measured over 10 to 40 mins by automated nociception analysis relative to formalin; type: functional; parameters: scale not given: the % may be the effect or the level left
Mus musculus [13] = test: Analgesic activity in mouse assessed as reduction in CFA-induced cold allodynia at 100 mg/kg, ip administered 1 hr prior to acetone challenge on day 2 post CFA injection measured for 120 secs relative to vehicle control; type: functional; parameters: scale not given: the % may be the effect or the level left
hERG (KCNH2) = hERG (KCNH2) (Homo sapiens, UniProt Q12809); test: Displacement of [3H] astemizole from human ERG channel at 5 uM; settings: probe [3H] astemizole
Chain of hERG (KCNH2) (Q12809 whole entry): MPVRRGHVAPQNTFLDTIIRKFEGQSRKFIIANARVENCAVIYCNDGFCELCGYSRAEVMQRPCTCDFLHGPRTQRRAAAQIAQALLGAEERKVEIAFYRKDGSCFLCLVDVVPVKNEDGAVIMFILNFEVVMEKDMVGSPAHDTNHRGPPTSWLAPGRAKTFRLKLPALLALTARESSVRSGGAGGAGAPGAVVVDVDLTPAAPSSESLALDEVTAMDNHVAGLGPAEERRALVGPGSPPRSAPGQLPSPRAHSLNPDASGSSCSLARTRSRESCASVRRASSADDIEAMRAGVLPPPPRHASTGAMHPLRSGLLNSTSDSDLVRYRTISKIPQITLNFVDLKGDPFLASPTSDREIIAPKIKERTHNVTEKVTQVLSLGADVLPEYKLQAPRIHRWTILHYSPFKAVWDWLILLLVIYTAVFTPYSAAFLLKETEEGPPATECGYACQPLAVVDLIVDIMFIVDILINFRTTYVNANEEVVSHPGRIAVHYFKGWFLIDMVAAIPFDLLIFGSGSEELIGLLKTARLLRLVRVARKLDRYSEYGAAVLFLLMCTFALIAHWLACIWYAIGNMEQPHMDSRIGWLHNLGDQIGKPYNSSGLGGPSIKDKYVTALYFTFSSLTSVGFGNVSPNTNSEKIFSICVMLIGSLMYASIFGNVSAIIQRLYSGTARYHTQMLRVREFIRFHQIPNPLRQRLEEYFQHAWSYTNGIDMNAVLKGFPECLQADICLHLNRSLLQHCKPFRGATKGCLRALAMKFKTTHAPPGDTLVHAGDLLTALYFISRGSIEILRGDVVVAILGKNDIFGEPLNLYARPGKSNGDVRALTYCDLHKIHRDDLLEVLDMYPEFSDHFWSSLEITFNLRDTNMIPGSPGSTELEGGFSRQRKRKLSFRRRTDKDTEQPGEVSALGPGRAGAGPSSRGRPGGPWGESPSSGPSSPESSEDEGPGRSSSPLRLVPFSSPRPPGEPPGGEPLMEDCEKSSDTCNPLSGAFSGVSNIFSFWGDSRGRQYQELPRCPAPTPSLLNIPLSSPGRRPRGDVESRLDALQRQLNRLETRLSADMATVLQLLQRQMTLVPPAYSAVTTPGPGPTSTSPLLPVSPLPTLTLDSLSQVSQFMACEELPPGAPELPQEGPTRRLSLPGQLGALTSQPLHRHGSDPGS

[14] = target: Sodium channel protein type 5 subunit alpha (Homo sapiens, UniProt Q14524); test: Inhibition of full length human Nav1.5 channel expressed in HEK cells co-expressing human sodium channel subunit beta1 at holding potential -60 mV by automated voltage clamp analysis; type: cell-based, HEK293
Chain of Sodium channel protein type 5 subunit alpha (Q14524 whole entry): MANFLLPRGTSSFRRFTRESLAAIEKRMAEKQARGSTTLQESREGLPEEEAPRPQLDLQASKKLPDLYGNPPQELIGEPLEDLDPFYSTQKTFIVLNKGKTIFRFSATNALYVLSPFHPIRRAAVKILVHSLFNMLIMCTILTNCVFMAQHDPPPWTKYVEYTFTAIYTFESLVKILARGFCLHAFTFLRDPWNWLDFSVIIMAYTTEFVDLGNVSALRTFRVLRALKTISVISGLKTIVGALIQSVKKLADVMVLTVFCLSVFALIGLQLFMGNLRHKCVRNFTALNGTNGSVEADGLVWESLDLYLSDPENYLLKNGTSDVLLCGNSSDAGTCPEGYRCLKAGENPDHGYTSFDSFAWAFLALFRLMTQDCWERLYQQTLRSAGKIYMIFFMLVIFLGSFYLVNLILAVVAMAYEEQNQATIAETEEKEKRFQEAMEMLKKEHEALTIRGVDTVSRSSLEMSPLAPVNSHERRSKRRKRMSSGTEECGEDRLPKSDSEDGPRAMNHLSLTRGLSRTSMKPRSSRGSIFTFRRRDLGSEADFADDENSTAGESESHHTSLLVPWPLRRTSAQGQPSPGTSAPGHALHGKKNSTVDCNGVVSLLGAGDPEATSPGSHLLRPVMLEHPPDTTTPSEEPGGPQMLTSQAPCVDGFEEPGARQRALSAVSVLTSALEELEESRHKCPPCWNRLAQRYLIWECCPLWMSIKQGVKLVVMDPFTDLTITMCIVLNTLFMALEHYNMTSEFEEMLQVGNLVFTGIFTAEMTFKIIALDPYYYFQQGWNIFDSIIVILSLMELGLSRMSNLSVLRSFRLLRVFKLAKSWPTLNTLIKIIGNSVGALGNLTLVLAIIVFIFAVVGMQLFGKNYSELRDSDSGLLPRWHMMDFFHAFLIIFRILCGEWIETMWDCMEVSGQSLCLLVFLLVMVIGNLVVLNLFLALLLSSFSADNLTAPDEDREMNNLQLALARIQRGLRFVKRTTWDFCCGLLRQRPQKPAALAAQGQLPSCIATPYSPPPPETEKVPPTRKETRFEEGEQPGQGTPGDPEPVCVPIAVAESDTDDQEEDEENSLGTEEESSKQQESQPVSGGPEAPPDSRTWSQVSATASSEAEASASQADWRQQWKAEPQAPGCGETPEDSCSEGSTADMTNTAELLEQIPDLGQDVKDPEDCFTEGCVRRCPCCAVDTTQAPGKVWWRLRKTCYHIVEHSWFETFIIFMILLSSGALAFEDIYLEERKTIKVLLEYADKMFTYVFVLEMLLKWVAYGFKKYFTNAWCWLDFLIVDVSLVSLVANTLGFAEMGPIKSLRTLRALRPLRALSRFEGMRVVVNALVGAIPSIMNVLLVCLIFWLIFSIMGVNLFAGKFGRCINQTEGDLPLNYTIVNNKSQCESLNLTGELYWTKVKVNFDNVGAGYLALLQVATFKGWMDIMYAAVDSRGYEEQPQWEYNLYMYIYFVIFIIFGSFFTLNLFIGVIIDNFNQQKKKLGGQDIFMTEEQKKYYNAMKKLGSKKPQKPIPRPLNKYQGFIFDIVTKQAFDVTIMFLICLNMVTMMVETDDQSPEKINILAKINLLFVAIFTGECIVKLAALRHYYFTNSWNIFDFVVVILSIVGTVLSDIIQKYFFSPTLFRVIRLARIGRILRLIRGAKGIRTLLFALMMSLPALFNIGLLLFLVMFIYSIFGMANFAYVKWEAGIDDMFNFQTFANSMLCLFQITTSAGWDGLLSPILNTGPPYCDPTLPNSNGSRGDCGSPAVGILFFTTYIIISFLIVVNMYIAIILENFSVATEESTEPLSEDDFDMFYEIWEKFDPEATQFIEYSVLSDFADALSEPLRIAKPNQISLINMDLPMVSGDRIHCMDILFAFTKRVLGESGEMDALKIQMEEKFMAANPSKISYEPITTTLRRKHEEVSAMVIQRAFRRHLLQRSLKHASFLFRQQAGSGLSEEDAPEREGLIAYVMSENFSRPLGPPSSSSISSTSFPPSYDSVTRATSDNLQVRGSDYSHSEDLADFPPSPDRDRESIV

[15] = target: Sodium channel protein type 9 subunit alpha (Homo sapiens, UniProt Q15858); test: Inhibition of full length human Nav1.7 channel expressed in HEK cells co-expressing human sodium channel subunit beta1 at holding potential -60 mV by automated voltage clamp analysis; type: cell-based, HEK293
Chain of Sodium channel protein type 9 subunit alpha (Q15858 whole entry): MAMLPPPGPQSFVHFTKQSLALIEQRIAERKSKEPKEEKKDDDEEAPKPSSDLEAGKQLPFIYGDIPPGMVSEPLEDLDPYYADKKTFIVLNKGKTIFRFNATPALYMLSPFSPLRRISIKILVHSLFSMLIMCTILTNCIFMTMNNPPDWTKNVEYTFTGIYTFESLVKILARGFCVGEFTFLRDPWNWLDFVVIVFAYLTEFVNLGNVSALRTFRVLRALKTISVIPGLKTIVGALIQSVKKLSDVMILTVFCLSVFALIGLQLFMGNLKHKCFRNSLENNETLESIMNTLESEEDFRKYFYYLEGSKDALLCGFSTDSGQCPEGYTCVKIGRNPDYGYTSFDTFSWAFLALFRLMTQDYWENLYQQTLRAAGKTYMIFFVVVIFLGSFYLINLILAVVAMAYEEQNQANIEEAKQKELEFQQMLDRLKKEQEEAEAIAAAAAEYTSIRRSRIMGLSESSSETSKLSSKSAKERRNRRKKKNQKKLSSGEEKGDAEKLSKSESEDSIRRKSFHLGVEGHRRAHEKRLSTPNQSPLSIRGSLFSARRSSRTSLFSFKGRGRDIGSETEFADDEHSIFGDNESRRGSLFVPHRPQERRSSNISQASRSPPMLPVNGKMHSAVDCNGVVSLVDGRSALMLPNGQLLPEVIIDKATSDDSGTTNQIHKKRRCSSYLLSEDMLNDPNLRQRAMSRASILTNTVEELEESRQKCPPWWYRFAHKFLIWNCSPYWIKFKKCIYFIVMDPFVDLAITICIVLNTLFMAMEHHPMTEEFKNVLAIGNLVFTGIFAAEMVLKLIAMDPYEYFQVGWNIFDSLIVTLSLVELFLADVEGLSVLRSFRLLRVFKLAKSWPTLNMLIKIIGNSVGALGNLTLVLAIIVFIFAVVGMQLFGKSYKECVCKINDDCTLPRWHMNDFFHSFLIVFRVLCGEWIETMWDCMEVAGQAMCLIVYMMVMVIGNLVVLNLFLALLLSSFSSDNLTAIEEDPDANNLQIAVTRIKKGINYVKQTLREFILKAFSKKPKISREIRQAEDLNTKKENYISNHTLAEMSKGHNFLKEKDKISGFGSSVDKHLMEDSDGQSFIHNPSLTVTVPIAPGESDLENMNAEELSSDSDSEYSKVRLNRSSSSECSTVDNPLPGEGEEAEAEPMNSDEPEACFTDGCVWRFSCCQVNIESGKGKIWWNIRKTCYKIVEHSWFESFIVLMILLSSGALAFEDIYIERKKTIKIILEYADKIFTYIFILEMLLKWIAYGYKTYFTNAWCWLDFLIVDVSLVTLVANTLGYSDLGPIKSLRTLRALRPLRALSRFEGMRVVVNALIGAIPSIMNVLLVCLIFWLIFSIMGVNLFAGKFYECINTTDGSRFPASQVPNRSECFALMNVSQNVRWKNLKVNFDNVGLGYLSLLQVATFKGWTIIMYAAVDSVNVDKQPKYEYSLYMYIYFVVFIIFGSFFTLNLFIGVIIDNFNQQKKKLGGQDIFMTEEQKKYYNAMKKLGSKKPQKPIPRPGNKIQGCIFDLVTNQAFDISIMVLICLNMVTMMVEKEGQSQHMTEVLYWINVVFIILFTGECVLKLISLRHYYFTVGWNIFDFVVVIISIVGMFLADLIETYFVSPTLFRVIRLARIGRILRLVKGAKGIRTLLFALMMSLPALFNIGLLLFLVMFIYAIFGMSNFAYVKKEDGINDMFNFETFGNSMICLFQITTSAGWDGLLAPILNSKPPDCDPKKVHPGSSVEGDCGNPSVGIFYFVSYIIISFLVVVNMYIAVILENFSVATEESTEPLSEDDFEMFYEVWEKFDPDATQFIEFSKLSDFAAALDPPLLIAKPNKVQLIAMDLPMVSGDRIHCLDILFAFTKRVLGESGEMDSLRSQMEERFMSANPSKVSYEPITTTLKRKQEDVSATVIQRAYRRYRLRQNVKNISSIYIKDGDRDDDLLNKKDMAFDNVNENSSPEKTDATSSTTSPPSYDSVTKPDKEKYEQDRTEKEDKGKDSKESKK

Cytochrome P450 2C19 = Cytochrome P450 2C19 (Homo sapiens, UniProt P33261); test: Inhibition of CYP2C19 in human liver microsomes using mephenytoin as substrate after 30 mins by LC/MS/MS analysis; type: ADME
Cytochrome P450 1A2 = target: T1, Cytochrome P450 1A2 (Homo sapiens, UniProt P05177); test: Inhibition of CYP1A2 in human liver microsomes using phenacetin as substrate after 30 mins by LC/MS/MS analysis; type: ADME
T1 sequence (P05177 whole entry): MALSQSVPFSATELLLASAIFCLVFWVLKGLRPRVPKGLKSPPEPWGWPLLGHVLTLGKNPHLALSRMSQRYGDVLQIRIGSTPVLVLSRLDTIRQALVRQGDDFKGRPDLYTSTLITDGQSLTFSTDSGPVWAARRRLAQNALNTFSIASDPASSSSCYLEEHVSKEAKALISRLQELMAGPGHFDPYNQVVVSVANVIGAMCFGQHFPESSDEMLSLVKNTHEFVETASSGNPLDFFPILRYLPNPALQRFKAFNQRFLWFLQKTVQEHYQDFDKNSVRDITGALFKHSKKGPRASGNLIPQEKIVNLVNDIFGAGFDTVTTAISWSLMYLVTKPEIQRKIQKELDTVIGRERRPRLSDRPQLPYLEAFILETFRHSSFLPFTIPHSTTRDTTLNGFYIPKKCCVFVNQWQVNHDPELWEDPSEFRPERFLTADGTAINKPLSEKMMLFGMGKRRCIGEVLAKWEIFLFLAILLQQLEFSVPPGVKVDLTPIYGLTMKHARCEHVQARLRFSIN

Cytochrome P450 3A4 = Cytochrome P450 3A4 (Homo sapiens, UniProt P08684); test: Inhibition of CYP3A4 in human liver microsomes using testosterone/midazolam as substrate after 30 mins by LC/MS/MS analysis; type: ADME
Cytochrome P450 2D6 = Cytochrome P450 2D6 (Homo sapiens, UniProt P10635); test: Inhibition of CYP2D6 in human liver microsomes using dextromethorphan as substrate after 30 mins by LC/MS/MS analysis; type: ADME
Cytochrome P450 2C9 = Cytochrome P450 2C9 (Homo sapiens, UniProt P11712); test: Inhibition of CYP2C9 in human liver microsomes using warfarin as substrate after 30 mins by LC/MS/MS analysis; type: ADME

**Q.** Which Activity (Rattus norvegicus [1]) does the source give for `Nc1noc2ccc(-c3cc(Cl)ccc3Oc3cc(F)c(S(=O)(=O)Nc4ncns4)cc3F)cc12` here?
**A.** inactive

**Q.** And the Ratio IC50 [2]?
**A.** > 60

**Q.** And the Activity (Rattus norvegicus [3])?
**A.** Dose-dependent effect

**Q.** And the Activity (Rattus norvegicus [4])?
**A.** inactive

**Q.** What about the Activity (Mus musculus [5]) of the same molecule?
**A.** Dose-dependent effect

**Q.** And the Activity (Mus musculus [6])?
**A.** inactive

**Q.** What about the Activity (Rattus norvegicus [7]) of the same molecule?
**A.** Active

**Q.** For `Nc1noc2ccc(-c3cc(Cl)ccc3Oc3cc(F)c(S(=O)(=O)[N-]c4ncns4)cc3F)cc12.[Na+]`, which Activity (Rattus norvegicus [8]) is on record?
**A.** 43%

**Q.** And the Activity (Mus musculus [9])?
**A.** 59%

**Q.** What about the “Cp(f)” value (Rattus norvegicus [10]) of the same molecule?
**A.** 250 nM

**Q.** What about the “Cp(f)” value (Rattus norvegicus [11]) of the same molecule?
**A.** 250 nM

**Q.** What about the Activity (Rattus norvegicus [12]) of the same molecule?
**A.** 60%

**Q.** And the Activity (Mus musculus [13])?
**A.** 83%

**Q.** Which inhibition at 5 µM (hERG (KCNH2)) does the source give for `Nc1noc2ccc(-c3cc(Cl)ccc3Oc3cc(F)c(S(=O)(=O)Nc4cscn4)cc3F)cc12` here?
**A.** < 11%

**Q.** What does the source list for `O=S(=O)(Nc1ncns1)c1cc(F)c(Oc2ccc(Cl)cc2-c2cnc3n2CCNC3)cc1F`?
**A.** inhibition at 5 µM (hERG (KCNH2)): < 11%; IC50 [14]: > 10 µM

**Q.** Which inhibition at 5 µM (hERG (KCNH2)) does the source give for `Nc1noc2ccc(-c3cc(F)ccc3Oc3cc(F)c(S(=O)(=O)Nc4ncns4)cc3F)cc12` here?
**A.** < 11%

**Q.** For `Nc1noc2ccc(-c3cc(Cl)ccc3Oc3cc(F)c(S(=O)(=O)NCc4ncccn4)cc3F)cc12`, which IC50 [15] is on record?
**A.** 5.2 µM

**Q.** Which IC50 (Cytochrome P450 2C19) does the source give for `Nc1noc2ccc(-c3cc(Cl)ccc3Oc3cc(F)c(S(=O)(=O)Nc4ncccn4)cc3F)cc12` here?
**A.** > 10 µM

**Q.** And the IC50 (Cytochrome P450 1A2)?
**A.** > 10 µM

**Q.** What about the IC50 (Cytochrome P450 3A4) of the same molecule?
**A.** > 10 µM

**Q.** And the inhibition at 5 µM (hERG (KCNH2))?
**A.** < 11%

**Q.** And the IC50 (Cytochrome P450 2D6)?
**A.** > 10 µM

**Q.** What about the IC50 (Cytochrome P450 2C9) of the same molecule?
**A.** 0.57 µM

**Q.** For `Nc1n[nH]c2ccc(-c3cc(Cl)ccc3Oc3cc(F)c(S(=O)(=O)Nc4ncns4)cc3F)cc12`, which inhibition at 5 µM (hERG (KCNH2)) is on record?
**A.** < 11%

**Q.** And the IC50 [14]?
**A.** > 10 µM

**Q.** With `O=S(=O)(Nc1ncns1)c1cc(F)c(Oc2ccc(Cl)cc2-c2cccc3nccn23)cc1F` as the molecule, how does the inhibition at 5 µM (hERG (KCNH2)) read?
**A.** < 11%

**Q.** What about the IC50 [14] of the same molecule?
**A.** > 10 µM

**Q.** And the IC50 [15]?
**A.** 0.017 µM

**Q.** Which inhibition at 5 µM (hERG (KCNH2)) does the source give for `Nc1noc2ccc(-c3cccnc3Oc3cc(F)c(S(=O)(=O)Nc4ncns4)cc3F)cc12` here?
**A.** < 11%
